Test system: 996289-038-R-J1-PDC spheroid viability
Assay: Anticancer human tumor 996289-038-R-J1-PDC patient-derived colon adenocarcinoma cell line growth inhibition [PI3K]
Conditions: spheroids with HUVEC and MSC; for IC50: curve of first compound; for viability, T/C: stronger effect = lower value
How it was run: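 Agents were dosed from a top concentration near clinical Cmax (otherwise 10 microM) in half-log decrements, alone or combined with PI3K inhibitors. The spheroids contain tumor cells plus endothelial (HUVEC) and MSC stroma; viability is measured.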

[1] = second compound 0.0316 µM, first compound 0.000316 µM
[2] = second compound 0.0316 µM, first compound 0.001 µM
[3] = second compound 0.0316 µM, first compound 0.00316 µM
[4] = second compound 0.0316 µM, first compound 0.01 µM
[5] = second compound 0.0316 µM, first compound 0.0316 µM
[6] = second compound 0.0316 µM, first compound 0.1 µM
[7] = second compound 0.1 µM, first compound 0.000316 µM
[8] = second compound 0.1 µM, first compound 0.001 µM
[9] = second compound 0.1 µM, first compound 0.00316 µM
[10] = second compound 0.1 µM, first compound 0.01 µM
[11] = second compound 0.1 µM, first compound 0.0316 µM
[12] = second compound 0.1 µM, first compound 0.1 µM
[13] = second compound 0.316 µM, first compound 0.000316 µM
[14] = second compound 0.316 µM, first compound 0.001 µM
[15] = second compound 0.316 µM, first compound 0.00316 µM
[16] = second compound 0.316 µM, first compound 0.01 µM
[17] = second compound 0.316 µM, first compound 0.0316 µM
[18] = second compound 0.316 µM, first compound 0.1 µM
[19] = second compound 1 µM, first compound 0.000316 µM
[20] = second compound 1 µM, first compound 0.001 µM
[21] = second compound 1 µM, first compound 0.00316 µM
[22] = second compound 1 µM, first compound 0.01 µM
[23] = second compound 1 µM, first compound 0.0316 µM
[24] = second compound 1 µM, first compound 0.1 µM
[25] = second compound 3.16 µM, first compound 0.000316 µM
[26] = second compound 3.16 µM, first compound 0.001 µM
[27] = second compound 3.16 µM, first compound 0.00316 µM
[28] = second compound 3.16 µM, first compound 0.01 µM
[29] = second compound 3.16 µM, first compound 0.0316 µM
[30] = second compound 3.16 µM, first compound 0.1 µM
[31] = second compound 10 µM, first compound 0.000316 µM
[32] = second compound 10 µM, first compound 0.001 µM
[33] = second compound 10 µM, first compound 0.00316 µM
[34] = second compound 10 µM, first compound 0.01 µM
[35] = second compound 10 µM, first compound 0.0316 µM
[36] = second compound 10 µM, first compound 0.1 µM
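Further: spheroids exposed to compounds for seven days before viability read.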
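Wherever viability, T/C is given: luminescence used as a proxy for viable cell amount; percent viability relative to DMSO vehicle control as 100%.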

CC(=O)c1c(C)c2cnc(Nc3ccc(N4CCNCC4)cn3)nc2n(C2CCCC2)c1=O + Cc1nc(NC(=O)N2CCCC2C(N)=O)sc1-c1ccnc(C(C)(C)C(F)(F)F)c1 was tested, and the IC50 (second compound 0.0316 µM) was greater than 100 nM, the IC50 (second compound 0.1 µM) was greater than 100 nM and the IC50 (second compound 0.316 µM) was greater than 100 nM. It also gave an IC50 (second compound 1 µM) greater than 100 nM, an IC50 (second compound 3.16 µM) greater than 100 nM and an IC50 (second compound 10 µM) of less than 0.316 nM. It also gave a viability, T/C [1] of 99.8%, a viability, T/C [2] of 83.4% and a viability, T/C [3] of 89.9%. The viability, T/C [4] was 86.4%, the viability, T/C [5] was 110% and the viability, T/C [6] was 99.8%. For the same molecule, the viability, T/C [7] was 111%, the viability, T/C [8] was 88.9% and the viability, T/C [9] was 107%. It also gave a viability, T/C [10] of 91.7%, a viability, T/C [11] of 94.7% and a viability, T/C [12] of 81.6%. The viability, T/C [13] was 81.5%, the viability, T/C [14] was 78.1% and the viability, T/C [15] was 80%. For the same molecule, the viability, T/C [16] was 80.2%, the viability, T/C [17] was 86.4% and the viability, T/C [18] was 77.7%. The viability, T/C [19] was 77.7%, the viability, T/C [20] was 74.5% and the viability, T/C [21] was 69.2%. It also gave a viability, T/C [22] of 69.7%, a viability, T/C [23] of 85.2% and a viability, T/C [24] of 66.7%. The viability, T/C [25] was 60.1%, the viability, T/C [26] was 57.9% and the viability, T/C [27] was 62.7%. For the same molecule, the viability, T/C [28] was 61.7%, the viability, T/C [29] was 57.9% and the viability, T/C [30] was 48%. The viability, T/C [31] was 45.4%, the viability, T/C [32] was 40.6% and the viability, T/C [33] was 36.6%. It also gave a viability, T/C [34] of 39.9%, a viability, T/C [35] of 47.4% and a viability, T/C [36] of 36.8%.
Molecule CC(C)n1nc(-c2ccc3oc(N)nc3c2)c2c(N)ncnc21 + Cc1nc(NC(=O)N2CCCC2C(N)=O)sc1-c1ccnc(C(C)(C)C(F)(F)F)c1 has an IC50 (second compound 0.0316 µM) of 54.8 nM, an IC50 (second compound 0.1 µM) of 27.3 nM and an IC50 (second compound 0.316 µM) of 41.5 nM. For the same molecule, the IC50 (second compound 1 µM) was 26 nM, the IC50 (second compound 3.16 µM) was 2.54 nM and the IC50 (second compound 10 µM) was less than 0.316 nM. The viability, T/C [1] was 97.1%, the viability, T/C [2] was 83.5% and the viability, T/C [3] was 89.2%. It also gave a viability, T/C [4] of 79%, a viability, T/C [5] of 66.5% and a viability, T/C [6] of 33.1%. For the same molecule, the viability, T/C [7] was 100%, the viability, T/C [8] was 83.2% and the viability, T/C [9] was 78.4%. The viability, T/C [10] was 61.7%, the viability, T/C [11] was 54.5% and the viability, T/C [12] was 25.4%. It also gave a viability, T/C [13] of 77.7%, a viability, T/C [14] of 86.4% and a viability, T/C [15] of 93%. It also gave a viability, T/C [16] of 58.9%, a viability, T/C [17] of 63.3% and a viability, T/C [18] of 24.1%. The viability, T/C [19] was 72.5%, the viability, T/C [20] was 79.9% and the viability, T/C [21] was 66.5%. The viability, T/C [22] was 59.5%, the viability, T/C [23] was 49.8% and the viability, T/C [24] was 22.3%. The viability, T/C [25] was 63.9%, the viability, T/C [26] was 53% and the viability, T/C [27] was 48.5%. For the same molecule, the viability, T/C [28] was 40.6%, the viability, T/C [29] was 32.3% and the viability, T/C [30] was 17.2%. For the same molecule, the viability, T/C [31] was 43.9%, the viability, T/C [32] was 40.8% and the viability, T/C [33] was 40.4%. The viability, T/C [34] was 35.5%, the viability, T/C [35] was 25.2% and the viability, T/C [36] was 14.2%.
